Experimental findings from patent publication US10716830B2, “ERBB4 activator screening assay” (Children's Hospital Los Angeles, priority 2011, dated 2020) are described below.

What all share (format): cell-based, mouse
The test system of assay [1] is YAMC-B4 cells. Briefly: Cell migration/restitution (modified scratch) assay. The settings on record: 8 h. As for the experimental part: Cells grown on fibronectin-coated plates were subjected to multiple circular wounds with a rotating silicone probe as previously described (Corredor, J., Yan, F., Shen, C. C., Tong, W., John, S. K., Wilson, G., Whitehead, R., and Polk, D. B. (2003) American journal of physiology. Cell physiology 284, C953-961). Cultures were photographed immediately and 8 h after wounding; % closure was determined by measuring wounds in Image.
To test the potential effect of NRG4-ErbB4 signaling on cell motility, we used a modified scratch assay for restitution/migration (Corredor, J., Yan, F., Shen, C. C., Tong, W., John, S. K., Wilson, G., Whitehead, R., and Polk, D. B. (2003) American journal of physiology. Cell physiology 284, C953-961). Over an 8 h period, NRG4 had no effect on the rate at which YAMC-B4 cells moved into the denuded area of a culture plate (FIG. 4C), while in contrast EGF caused a 54% increase in migration over control.

The next assay has as its system Akt. Briefly: Akt phosphorylation in whole cell lysates by western blot. The settings on record: YAMC-B4 cells; NRG4 100 ng/ml, 10 min. From the text:
(§1) Cell lysates were extracted in modified RIPA buffer as previously described (Frey, M. R., Dise, R. S., Edelblum, K. L., and Polk, D. B. (2006) Embo J 25, 5683-5692), cleared by centrifugation, and boiled in Laemmli sample buffer. Samples were separated on SDS-polyacrylamide gels (6-10% as appropriate), blotted on PVDF membranes, and subjected to quantitative immunoblot using the Li-Cor Odyssey infrared detection system. Equal loading was monitored by immunoblots for actin and at least one additional protein.
(§2) To identify signaling pathways which could be involved in NRG4-stimulated cell survival, we exposed YAMC-B4 cells to NRG4 or EGF and prepared whole cell lysates for western blot analysis. […] Furthermore, COX-2 expression, which is induced by either HRG-1β or EGF after 6 h exposure, and is required for cell survival induced by ErbB4-EGFR dimers (Frey, M. R., Hilliard, V. C., Mullane, M. T., and Polk, D. B. (2010) Laboratory Investigation 90, 1415-1424), was not induced by NRG4. Thus, NRG4 promotes cell survival through pathways at least partly distinct from those activated by other ligands.
For orientation: In western blotting, separated proteins are transferred to a membrane and probed.

Another assay has as its system ERK MAPK. Kind of assay: ERK MAPK phosphorylation in whole cell lysates by western blot. The settings on record: YAMC-B4 cells; NRG4 100 ng/ml, 10 min.
From the text: as §1, §2

The subject of assay [2] is EGFR, ErbB2, ErbB3, and ErbB4. Kind of assay: ErbB receptor phosphorylation by western blot with phospho-specific antibodies. The settings on record: YAMC-B4 cells (human ErbB4 construct); 10 min; HRG-1β 100 ng/ml, NRG4, EGF 10 ng/ml.
From the text: Conditionally immortalized, non-transformed young adult mouse colon (YAMC) epithelial cells were provided by Dr. Robert Whitehead (Whitehead, R. H., VanEeden, P. E., Noble, M. D., Ataliotis, P., and Jat, P. S. (1993) Proc Natl Acad Sci USA 90, 587-591). These cells express low levels of endogenous ErbB4; YAMC-B4 cells expressing a human ErbB4 construct were generated as previously described (Frey, M. R., Edelblum, K. L., Mullane, M. T., Liang, D., and Polk, D. B. (2009) Gastroenterology 136, 217-226). […]
as §1
Phosphorylation of EGFR, ErbB2, ErbB3, and ErbB4 was determined by western blot analysis of cell lysates using phospho-specific antibodies. […]

Assay [3] concerns YAMC-B4 cells. Kind of assay: EdU proliferation assay. The settings on record: 24 h stimulation. The procedure:
Proliferative index in fixed colon specimens was assessed by immunohistochemical stain for Ki-67. In vitro, cells were exposed to vehicle or growth factors for 24 h, then labeled with 5-ethynyl-2-deoxyuridine (EdU) for 2 h and fixed. Nuclei were marked with DAPI, and incorporated EdU was detected using a Click-iT EdU kit (Invitrogen).
Most ErbB ligands stimulate multiple cellular processes, including proliferation and migration, in colon epithelial cells (Frey, M. R., Golovin, A., and Polk, D. B. (2004) J Biol Chem 279, 44513-44521). To determine if NRG4 is similarly broad in its cellular effects, we subjected YAMC-B4 cells to proliferation assays in the presence of NRG4. […] In vivo, the number of Ki67-positive nuclei per crypt in PBS vs. NRG4-injected mice was not altered 24 h post-injection (FIG. 4B).

The next assay relates to COX-2. Kind of assay: COX-2 expression in YAMC-B4 cells. The settings on record: 6 h exposure. As for the experimental part: as §2

Consider “epidermal growth factor (NSYPGCPSSYDGYCLNGGVCMHIESLDSYTCNCVIGYSGDRCQTRDLRWWELR; Epidermal growth factor; UniProt P01132 977-1029, looked up) [EGF, Recombinant murine EGF from Peprotech; positive control for cell stimulation, reference compound]”, for which the “increase in migration over control” value with YAMC-B4 cells [1] is 54%. Further, the “phosphorylation of Akt” value in the assay on Akt is given as “activated both cascades”. Further, the “phosphorylation of ERK MAPK” value in the assay with ERK MAPK is “activated both cascades”. The “phosphorylation of EGFR, ErbB2, ErbB3, and ErbB4” value in assay [2] was “stimulated phosphorylation of multiple ErbBs”. For the same substance, in the assay with YAMC-B4 cells [3], the “stimulation of proliferation over control (EdU)” value was 31.5%. Besides, the COX-2 expression result in the assay with COX-2 is “induced”.
